Earlier results on one molecule are cited in patent US11555010B2, “Diamide antimicrobial agents” (BROWN UNIVERSITY, priority 2019, dated 2023).

The data set has as its system LT. The conditions noted are these: cited from earlier work.

On to `CC1=N[C@@H]2[C@@H](O)[C@H](O)[C@@H](CO)O[C@@H]2S1` [NAG-thiazoline], for which the “binding to LT” value is “weak binder”.
